{
  "source": "paper PMC9022420",
  "about": "(Scientific Reports, 2022)",
  "key": {"pDNA (pUC18)": {"system": "pDNA (pUC18)", "assay": "pDNA photocleavage, agarose gel electrophoresis", "type": "biochemical", "conditions": "10 µM flavin, 15 min white LED, PBS 0.1% DMSO", "experimental": "A 20 µL aliquot was taken after 15 min of white LED irradiation (1 × 10^5 lx). Prior to loading, 2 µL of 6X Orange-G loading dye in glycerol were added to the aliquot and mixed vigorously. The gel was electrophoresed at 80 V for 35 min with 1% agarose gels in 1X Tris–acetate-EDTA (TAE) buffer. Gels were then imaged in a Syngene G:BOX Gel Documentation System and band % quantification was performed using ImageJ Gel Analyzer."}, "[1]": {"system": "murine hepatitis virus A59 strain (MHV-A59)", "assay": "Photodynamic inactivation of MHV-A59 (TCID50 assay in 17Cl-1 cells)", "type": "cell-based", "experimental": "The efficacy of the flavins were enumerated utilizing modified methods from ISO 18,184 and Leibowitz et al.[56] […] 100 µM working stock solutions were then created by diluting each DMSO solution into PBS. To control for the effect of DMSO on MHV-A59, DMSO was diluted into PBS at the same concentration. A white light apparatus was set up to cover a 4 × 5 (row x column) area of a 96-well plate with the same level of light intensity (1 × 10^5 lx). The stock solutions were then diluted in replicates of four to a total of 180 µl in PBS at 1, 5, and 10 µM concentrations for each sample. Virus stocks of MHV-A59 were thawed on ice prior to use. 20 µl of MHV-A59 stock (1.4 × 10^9 PFU/ml) was then mixed into each well, and the 4 × 5 well matrix was treated with the light or incubated in the dark at room temperature for a specified time (5, 10, or 15 min).\nAfter treatment, the samples were mixed into 320 µl of Gibco Difco™ Beef Extract (1.5% w/v beef extract in ddH2O; Life Technologies) and rolled for 15 min to chelate any free ions in the solution. The samples then were serially diluted (10^0–10^–7) in infectivity media (Dulbecco’s modified Eagle’s medium low glucose 1 g/L (DMEM, Life Technologies) supplemented with 2.5% fetal bovine serum (Merck), 3% tryptose phosphate broth (Merck), 1 × non-essential amino acids (Gibco), 1 × antibiotic–antimycotic (Thermo Fisher Scientific) and 1 × L-Glutamine (Gibco]) and added in triplicate to 17Cl-1 cell plates. For each sample or control there were 4 replicate treatments (in light or dark); each treatment replicate was plated in triplicate. Infected 17Cl-1 plates were incubated at 37 °C in a 5% CO2 atmosphere for 24 h. Plates were scored for cytopathic effect (CPE) by microscopy and viral titres were determined by the Reed and Muench 50% tissue culture infectious dose (TCID50) end point method. Outliers were removed from the four replicates using an outlier test. The full protocol was repeated in triplicate on different days to account for any variability in the assay."}, "E. coli BL21(DE3)": {"system": "E. coli BL21(DE3)", "assay": "Photodynamic inactivation of E. coli (CFU counting)", "type": "cell-based", "experimental": "After an overnight aerobic culture in LB broth at 37 °C with shaking at 225 rpm, the resulting E. coli were centrifuged at 2,500 rpm for 10 min. The pellet was resuspended in PBS (Sigma, 1x, pH 7.4) to an OD600 value of 0.6 (~ 1 × 10^8 bacteria per ml). […] Aliquots of negative controls (0.5% DMSO in PBS; PBS only) and 100 μM flavin-bacteria samples were covered in foil to remain in dark, while all samples were plated onto a 96-well plate and exposed to white LED irradiation (1 × 10^5 lx) for 15 min. After 15 min of irradiation or darkness, each sample was serially diluted to its respective, appropriate dilution and plated onto an LB agar plate with 50 μg/mL kanamycin. Plates were incubated overnight at 37 °C in the dark. Survival of bacteria was determined by counting colony forming units (CFUs) the next day.\nFor time point data, aliquots of 100 μM flavin-bacteria solutions were taken at 5-min increments of irradiation (0, 5, 10, and 15 min) and evaluated similarly as above. Time point experiment with one-minute increments, between 0 and 5 min, were conducted for 100 μM F4-bacteria samples."}, "[2]": {"assay": "UV-Vis absorption and emission spectra of flavins in DMSO", "type": "physicochemical", "conditions": "measured in DMSO"}, "WI-38 cells": {"system": "WI-38 cells", "assay": "24 h MTS cytotoxicity assay, WI-38", "type": "cell-based", "conditions": "Homo sapiens, 24 h incubation, dark", "experimental": "The MTS tetrazolium compound is reduced by cells into a coloured formazan product which is soluble in cell culture media. It can be detected colorimetrically between 450 and 540 nm with the measured absorbance directly proportional to the amount of metabolically active cells in culture. Cells were seeded into clear 96-well plates containing 10,000 cells/well in 100 µL complete growth medium and cultured for 24 h at 37 °C and 5% CO2. […] After further 24 h incubation at 37 °C and 5% CO2, 20 µL of CelTiter 96® AQueous One Solution (Promega) was added into each well and incubated at 37 °C, 5% CO2 for 1–4 h, according to the manufacturer’s instruction. The absorbance of each well was measured at 490 nm using a plate reader (Spark, Tecan). Control measurements included negative control of cells with DMEM, cells with DMEM containing 0.1% DMSO, cell-free culture media (blank) and cell-free sample dilutions in culture media to evaluate potential sample interferences with MTS assay. All experiments were conducted in biological triplicates. The percentage cell viability was calculated according to Eq. (1):1 Cell viability(%)=100×Absorbanceoftreatedcells-Absorbanceofblank/Absorbanceofcontrol-Absorbanceofblank"}, "[3]": {"conditions": "1 µM flavin, 10 min irradiation (21.0 J/cm^2)"}, "[4]": {"conditions": "5 µM flavin, 10 min irradiation"}, "[5]": {"conditions": "10 µM flavin, 10 min irradiation"}, "[6]": {"conditions": "100 µM flavin, 5 min irradiation (10.5 J/cm^2)"}, "[7]": {"conditions": "100 µM flavin, 10 min irradiation"}, "[8]": {"conditions": "10 µM flavin, 15 min irradiation"}},
  "note": "Where “and” joins values, the source holds several entries; their conditions need not be identical. Equal entries are not always repeated.",
  "data": [
    {"smiles": "CCCCCCCCn1c(=O)nc2n(CCNC(=N)N)c3cc(C)c(C)cc3nc-2c1=O", "note": "[Flavin F2]", "values": [
      {"measurement": "% NC (nicked coiled pDNA after photocleavage)", "setting": "pDNA (pUC18)", "result": 39, "unit": "%"},
      {"measurement": "MHV-A59 log10 reduction in viral titre", "setting": "[1]; [3]", "result": 2.1, "unit": "log10"},
      {"measurement": "MHV-A59 log10 reduction in viral titre", "setting": "[1]; [4]", "result": 3.9, "unit": "log10"},
      {"measurement": "MHV-A59 viral load reduction", "setting": "[1]; [4]", "result": "> 99.9", "unit": "%"},
      {"measurement": "MHV-A59 log10 reduction in viral titre", "setting": "[1]; [5]", "result": 3.8, "unit": "log10"},
      {"measurement": "E. coli reduction of bacteria", "setting": "E. coli BL21(DE3); 100 µM flavin, 5 min irradiation", "result": "> 99.9", "unit": "%"},
      {"measurement": "E. coli log10 reduction of CFUs", "setting": "E. coli BL21(DE3); [6]", "result": 3.4, "unit": "log10"},
      {"measurement": "E. coli log10 reduction of CFUs", "setting": "E. coli BL21(DE3); [7]", "result": 5.9, "unit": "log10"},
      {"measurement": "λ1 (S0 → S1 absorption band)", "setting": "[2]", "result": 446, "unit": "nm"},
      {"measurement": "λ2 (S0 → S2 absorption band)", "setting": "[2]", "result": 350, "unit": "nm"},
      {"measurement": "λem (emission wavelength)", "setting": "[2]", "result": 512, "unit": "nm"},
      {"measurement": "IC50", "setting": "WI-38 cells", "result": "> 100", "unit": "µM"}
    ]},
    {"smiles": "CCCCCCCCn1c(=O)nc2n(CCNC(=N)N)c3cc(Br)c(Br)cc3nc-2c1=O", "note": "[Flavin F4]", "values": [
      {"measurement": "% NC (nicked coiled pDNA after photocleavage)", "setting": "pDNA (pUC18)", "result": 21, "unit": "%"},
      {"measurement": "MHV-A59 log10 reduction in viral titre", "setting": "[1]; [3]", "result": 3.4, "unit": "log10"},
      {"measurement": "MHV-A59 viral load reduction", "setting": "[1]; [4]", "result": "> 99.99", "unit": "%"},
      {"measurement": "viral inactivation, log10 reduction", "setting": "[1]; 15 min irradiation at 1 μM", "result": "> 3", "unit": "log10"},
      {"measurement": "E. coli log10 reduction of CFUs", "setting": "E. coli BL21(DE3); [8]", "result": 2.8, "unit": "log10"},
      {"measurement": "E. coli reduction of bacteria", "setting": "E. coli BL21(DE3); 100 µM flavin, 1 min irradiation", "result": "> 99.99", "unit": "%"},
      {"measurement": "E. coli log10 reduction of CFUs", "setting": "E. coli BL21(DE3); 100 µM flavin, 1 min irradiation (2.10 J/cm^2), calculated vs t0 = 7.9", "result": "4.1 log10 and > 4 log10"},
      {"measurement": "E. coli log10 reduction of CFUs", "setting": "E. coli BL21(DE3); [7]", "result": 8.7, "unit": "log10"},
      {"measurement": "bacterial inactivation, log10 reduction", "setting": "E. coli BL21(DE3); 15 min irradiation at 11 μM", "result": "> 3", "unit": "log10"},
      {"measurement": "λ1 (S0 → S1 absorption band)", "setting": "[2]", "result": 444, "unit": "nm"},
      {"measurement": "λ2 (S0 → S2 absorption band)", "setting": "[2]", "result": 340, "unit": "nm"},
      {"measurement": "λem (emission wavelength)", "setting": "[2]", "result": 513, "unit": "nm"},
      {"measurement": "IC50", "setting": "WI-38 cells", "result": "> 100", "unit": "µM"}
    ]},
    {"smiles": "CCCCCCCCn1c(=O)nc2n(CCN)c3cc(Br)c(Br)cc3nc-2c1=O", "note": "[Flavin F3]", "values": [
      {"measurement": "MHV-A59 log10 reduction in viral titre", "setting": "[1]; [3]", "result": 2.1, "unit": "log10"},
      {"measurement": "MHV-A59 log10 reduction in viral titre", "setting": "[1]; [4]", "result": 4.1, "unit": "log10"},
      {"measurement": "MHV-A59 viral load reduction", "setting": "[1]; [4]", "result": "> 99.99", "unit": "%"},
      {"measurement": "MHV-A59 log10 reduction in viral titre", "setting": "[1]; [5]", "result": 4.8, "unit": "log10"},
      {"measurement": "E. coli log10 reduction of CFUs", "setting": "E. coli BL21(DE3); [8]", "result": 0.4, "unit": "log10"},
      {"measurement": "E. coli log10 reduction of CFUs", "setting": "E. coli BL21(DE3); [6]", "result": 1.3, "unit": "log10"},
      {"measurement": "E. coli log10 reduction of CFUs", "setting": "E. coli BL21(DE3); [7]", "result": 1.7, "unit": "log10"},
      {"measurement": "E. coli log10 reduction of CFUs", "setting": "E. coli BL21(DE3); 100 µM flavin, 15 min irradiation", "result": 1.8, "unit": "log10"},
      {"measurement": "λ1 (S0 → S1 absorption band)", "setting": "[2]", "result": 443, "unit": "nm"},
      {"measurement": "λ2 (S0 → S2 absorption band)", "setting": "[2]", "result": 336, "unit": "nm"},
      {"measurement": "λem (emission wavelength)", "setting": "[2]", "result": 508, "unit": "nm"},
      {"measurement": "IC50", "setting": "WI-38 cells", "result": 30.9, "unit": "µM"}
    ]},
    {"smiles": "CCCCCCCCn1c(=O)nc2n(CCN)c3cc(C)c(C)cc3nc-2c1=O", "note": "[Flavin F1]", "values": [
      {"measurement": "MHV-A59 log10 reduction in viral titre", "setting": "[1]; [4]", "result": 1.7, "unit": "log10"},
      {"measurement": "MHV-A59 log10 reduction in viral titre", "setting": "[1]; 10 µM flavin, 5 min irradiation (10.5 J/cm^2)", "result": 1.2, "unit": "log10"},
      {"measurement": "MHV-A59 log10 reduction in viral titre", "setting": "[1]; [5]", "result": 2.1, "unit": "log10"},
      {"measurement": "MHV-A59 log10 reduction in viral titre", "setting": "[1]; 10 µM flavin, 15 min irradiation (31.5 J/cm^2)", "result": 2.2, "unit": "log10"},
      {"measurement": "E. coli log10 reduction of CFUs", "setting": "E. coli BL21(DE3); [8]", "result": 0.2, "unit": "log10"},
      {"measurement": "E. coli log10 reduction of CFUs", "setting": "E. coli BL21(DE3); [6]", "result": 0.1, "unit": "log10"},
      {"measurement": "E. coli log10 reduction of CFUs", "setting": "E. coli BL21(DE3); [7]", "result": 0.1, "unit": "log10"},
      {"measurement": "λ1 (S0 → S1 absorption band)", "setting": "[2]", "result": 444, "unit": "nm"},
      {"measurement": "λ2 (S0 → S2 absorption band)", "setting": "[2]", "result": 349, "unit": "nm"},
      {"measurement": "λem (emission wavelength)", "setting": "[2]", "result": 507, "unit": "nm"},
      {"measurement": "IC50", "setting": "WI-38 cells", "result": 96.1, "unit": "µM"}
    ]}
  ]
}
